Source: patent US20090155279A1, “Pseudomonas Aeruginosa Outer Membrane Protein PA5158” (priority 2005, published 2009)
In brackets after ≈: the same amount, converted by molar mass.

Legend:
[1] = tested on: multidrug resistant Pseudomonas aeruginosa MSC06120 strains; experiment: Minimum inhibitory concentrations for MSC06120 strains; format: cell-based; conditions: read-out: Minimum inhibitory concentration
[2] = tested on: Pseudomonas aeruginosa PA103 strains (ATCC29260); experiment: Enhancement of anti-Pseudomonas aeruginosa activity of gentamicin (viable count); format: cell-based; conditions: gentamicin 0.125 μg/ml plus PBS (negative control group), 4 hours at 37° C.
Method: Pseudomonas aeruginosa PA103 strains (ATCC29260) were shake cultured overnight at 37° C. in a Mueller-Hinton liquid medium and diluted to 1×10^5 cfu/ml with the same medium. Then, the strains were shake cultured again at 37° C. Two hours later, gentamicin was added at a concentration of 0.125 μg/ml. Likewise, to a negative control group, PBS was added at a concentration of 300 μg/ml. To antibody-added groups, rat anti-PA5158L1 IgG as the monoclonal antibody produced by the hybridoma deposited under the accession No. FERM-BP-10672, rat anti-PA5158L2 IgG as the IgG fraction purified from the KLH-conjugated peptide (SEQ ID No: 6)-immunized rat sera, and rat anti-PA5158 IgG as the IgG fraction purified from the PA5158 recombinant protein-immunized rat sera were added at each concentration of 300 μg/ml. Then, shake culture was carried out at 37° C. for 4 hours, and the number of viable strains in each group was measured.

| Compound | MIC [1] | Number of viable strains [2] |
| --- | --- | --- |
| NCC[C@H](O)C(=O)N[C@@H]1C[C@H](N)[C@@H](O[C@H]2O[C@H](CN)[C@@H](O)[C@H](O)[C@H]2O)[C@H](O)[C@H]1O[C@H]1O[C@H](CO)[C@@H](O)[C@H](N)[C@H]1O [amikacin] | 64 µg/mL (≈ 109 µM) | – |
| C[C@@H](O)[C@H]1C(=O)N2C(C(=O)O)=C(SCCN=CN)C[C@H]12 [imipenem] | 32 µg/mL (≈ 107 µM) | – |
| O=C(O)c1cn(C2CC2)c2cc(N3CCNCC3)c(F)cc2c1=O [ciprofloxacin] | > 256 µg/mL | – |
| gentamicin | – | 5.4×10^6 cfu/ml |
